{
  "source": "ChEMBL document CHEMBL2412981",
  "about": "“Syntheses of procyanidin B2 and B3 gallate derivatives using equimolar condensation mediated by Yb(OTf)3 and their antitumor activities” (Bioorg Med Chem Lett, 2013)",
  "note": "The source made the active and inactive calls. The calls are words filed in the database; no cut-off is given here.",
  "data": [
    {"test_system": "PC-3", "experiment": "Antiproliferative activity against human PC3 cells at 10 to 100 uM after 48 hrs by hemocytometric cell counting method", "assay_type": "functional, cell-based", "values": [
      {"smiles": "O=C(O[C@@H]1Cc2c(O)cc(O)cc2O[C@@H]1c1cc(O)c(O)c(O)c1)c1cc(O)c(O)c(O)c1", "inhibition": "Active"},
      {"smiles": "O=C(O[C@@H]1[C@@H](c2c(O)cc(O)c3c2O[C@H](c2ccc(O)c(O)c2)[C@H](O)C3)c2c(O)cc(O)cc2O[C@@H]1c1ccc(O)c(O)c1)c1cc(O)c(O)c(O)c1", "inhibition": "Active"},
      {"smiles": "O=C(O[C@H]1[C@H](c2c(O)cc(O)c3c2O[C@H](c2ccc(O)c(O)c2)[C@@H](OC(=O)c2cc(O)c(O)c(O)c2)C3)c2c(O)cc(O)cc2O[C@@H]1c1ccc(O)c(O)c1)c1cc(O)c(O)c(O)c1", "inhibition": "Active"},
      {"smiles": "O=C(O[C@H]1Cc2c(O)cc(O)c([C@@H]3c4c(O)cc(O)cc4O[C@H](c4ccc(O)c(O)c4)[C@H]3O)c2O[C@@H]1c1ccc(O)c(O)c1)c1cc(O)c(O)c(O)c1", "inhibition": "Active"},
      {"smiles": "O=C(O[C@H]1[C@H](c2c(O)cc(O)c3c2O[C@H](c2ccc(O)c(O)c2)[C@@H](O)C3)c2c(O)cc(O)cc2O[C@@H]1c1ccc(O)c(O)c1)c1cc(O)c(O)c(O)c1", "inhibition": "Active"},
      {"smiles": "Oc1cc(O)c2c(c1)O[C@H](c1cc(O)c(O)c(O)c1)[C@@H](O)[C@@H]2c1c(O)cc(O)c2c1O[C@H](c1cc(O)c(O)c(O)c1)[C@@H](O)C2", "inhibition": "Active"},
      {"smiles": "O=C(O[C@@H]1[C@@H](c2c(O)cc(O)c3c2O[C@H](c2ccc(O)c(O)c2)[C@H](OC(=O)c2cc(O)c(O)c(O)c2)C3)c2c(O)cc(O)cc2O[C@@H]1c1ccc(O)c(O)c1)c1cc(O)c(O)c(O)c1", "inhibition": "Active"},
      {"smiles": "O=C(O[C@@H]1Cc2c(O)cc(O)c([C@H]3c4c(O)cc(O)cc4O[C@H](c4ccc(O)c(O)c4)[C@@H]3O)c2O[C@@H]1c1ccc(O)c(O)c1)c1cc(O)c(O)c(O)c1", "inhibition": "Active"}
    ]}
  ]
}
